Assay results from patent publication US12404241B2 (Celgene Corporation, priority 2018, dated 2025).
Counter-ions that a name gives are not always drawn.

Biological target: T1, AR (Homo sapiens, UniProt P10275)
T1 construct: endogenous in cells; host or cells: VCaP cells
T1 sequence (P10275 1-920): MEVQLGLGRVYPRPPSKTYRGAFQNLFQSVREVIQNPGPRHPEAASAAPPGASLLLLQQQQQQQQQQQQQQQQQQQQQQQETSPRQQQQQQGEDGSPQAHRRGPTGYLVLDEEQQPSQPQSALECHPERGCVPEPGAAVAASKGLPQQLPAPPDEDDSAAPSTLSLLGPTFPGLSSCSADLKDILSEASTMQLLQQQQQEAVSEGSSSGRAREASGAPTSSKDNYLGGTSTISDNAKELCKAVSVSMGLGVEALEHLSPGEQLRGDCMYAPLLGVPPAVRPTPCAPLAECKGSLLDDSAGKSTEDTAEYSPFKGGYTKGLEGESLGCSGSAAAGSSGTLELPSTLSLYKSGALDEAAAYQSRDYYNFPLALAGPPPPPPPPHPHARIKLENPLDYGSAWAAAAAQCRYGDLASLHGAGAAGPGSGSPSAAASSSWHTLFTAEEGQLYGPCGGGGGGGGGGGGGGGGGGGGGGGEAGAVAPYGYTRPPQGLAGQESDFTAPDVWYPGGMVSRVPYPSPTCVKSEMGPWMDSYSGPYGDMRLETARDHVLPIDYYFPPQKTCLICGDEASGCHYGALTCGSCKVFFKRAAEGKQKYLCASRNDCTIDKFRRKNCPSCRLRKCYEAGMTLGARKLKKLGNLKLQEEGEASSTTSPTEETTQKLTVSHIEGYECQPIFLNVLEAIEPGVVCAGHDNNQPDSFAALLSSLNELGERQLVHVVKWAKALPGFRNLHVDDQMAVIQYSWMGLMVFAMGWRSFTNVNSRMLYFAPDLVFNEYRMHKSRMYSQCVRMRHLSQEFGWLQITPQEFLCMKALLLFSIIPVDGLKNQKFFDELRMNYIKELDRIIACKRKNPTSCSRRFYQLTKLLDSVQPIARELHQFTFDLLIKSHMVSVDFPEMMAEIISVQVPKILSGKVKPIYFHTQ
Assay: VCAP AR Degradation Assay
Assay type: cell-based
Conditions: for Y (AR degradation efficiency, % of DMSO control): class symbols *; for DC50: class symbols A-C, read-out: DC50
Procedure, shortened: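 VCaP cells treated 24 h at 37 °C with a 10-point 1:3 series (top 5 μM final; 0.1% DMSO control). Lysate AR measured by sandwich ELISA, normalized to DMSO as percent of control; DC50, EC50 and lowest AR level (Y) from four-parameter logistic fit.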

| SMILES | Y (AR degradation efficiency, % of DMSO control) | DC50 [nM] |
| --- | --- | --- |
| CC(C)c1cc(N2C(=S)N(c3ccc(C#N)c(C(F)(F)F)c3)C(=O)C2(C)C)cnc1OCCN1C[C@@H](C)N(CC(=O)Nc2cc(C#N)cc(NC3CCC(=O)NC3=O)c2)C[C@H]1C (stereo partly drawn) [Example 232, 2-((2R,5R)-4-(2-(5-(3-(4-cyano-3-(trifluoromethyl)phenyl)-5,5-dimethyl-4-oxo-2-thioxoimidazolidin-1-yl)-3-isopropylpyridin-2-yloxy)ethyl)-2,5-dimethylpiperazin-1-yl)-N-(3-cyano-5-(2,6-dioxopiperidin-3-ylamino)phenyl)acetamide] | * (0<Y<=25%) | 100 to 500 |
| CCc1cc(N2C(=S)N(c3cnc(C#N)c(C(F)(F)F)c3)C(=O)C2(C)C)ccc1OCCN1CCN(CC(=O)Nc2cc(NC3CCC(=O)NC3=O)ccc2F)[C@H](C)C1 (stereo partly drawn) [Example 76, 2-((R)-4-(2-(4-(3-(6-cyano-5-(trifluoromethyl)pyridin-3-yl)-5,5-dimethyl-4-oxo-2-thioxoimidazolidin-1-yl)-2-ethylphenoxy)ethyl)-2-methylpiperazin-1-yl)-N-(5-(2,6-dioxopiperidin-3-ylamino)-2-fluorophenyl)acetamide] | * (0<Y<=25%) | < 100 |
| CC1(C)C(=O)N(c2ccc(C#N)c(C(F)(F)F)c2)C(=S)N1c1ccc(OCCN2CCN(CC(=O)Nc3cccc(NC4CCC(=O)NC4=O)c3)CC2)c(C2CCCC2)c1 (stereo not drawn) [Example 39, hydrochloride] | ** (25%<Y<=35%) | 100 to 500 |
| CCc1cc(N2C(=S)N(c3ccc(C#N)c(C(F)(F)F)c3)C(=O)C2(C)C)ccc1OCCN1C[C@H](C)N(CC(=O)Nc2cc(Cl)cc(NC3CCC(=O)NC3=O)c2)C[C@@H]1C (stereo partly drawn) [Example 126, N-(3-chloro-5-(2,6-dioxopiperidin-3-ylamino)phenyl)-2-((2S,5S)-4-(2-(4-(3-(4-cyano-3-(trifluoromethyl)phenyl)-5,5-dimethyl-4-oxo-2-thioxoimidazolidin-1-yl)-2-ethylphenoxy)ethyl)-2,5-dimethylpiperazin-1-yl)acetamide] | * (0<Y<=25%) | < 100 |
| CCc1cc(N2C(=S)N(c3ccc(C#N)c(C(F)(F)F)c3)C(=O)C2(C)C)ccc1OCCN1CCN(CC(=O)Nc2cccc(NC3CCC(=O)NC3=O)c2)C2(CC2)C1 (stereo not drawn) [Example 98, 2-(7-(2-(4-(3-(4-cyano-3-(trifluoromethyl)phenyl)-5,5-dimethyl-4-oxo-2-thioxoimidazolidin-1-yl)-2-ethylphenoxy)ethyl)-4,7-diazaspiro[2.5]octan-4-yl)-N-(3-(2,6-dioxopiperidin-3-ylamino)phenyl)acetamide] | ** (25%<Y<=35%) | < 100 |
| CC(C)c1cc(N2C(=S)N(c3cnc(C#N)c(C(F)(F)F)c3)C(=O)C2(C)C)ccc1OCCN1C[C@@H](C)N(CC(=O)Nc2cc(Cl)cc(NC3CCC(=O)NC3=O)c2)C[C@H]1C (stereo partly drawn) [Example 185, N-(3-chloro-5-(2,6-dioxopiperidin-3-ylamino)phenyl)-2-((2R,5R)-4-(2-(4-(3-(6-cyano-5-(trifluoromethyl)pyridin-3-yl)-5,5-dimethyl-4-oxo-2-thioxoimidazolidin-1-yl)-2-isopropylphenoxy)ethyl)-2,5-dimethylpiperazin-1-yl)acetamide] | * (0<Y<=25%) | 100 to 500 |
| C[C@@H]1CN(CCOc2ccc(N3C(=S)N(c4ccc(C#N)c(C(F)(F)F)c4)C(=O)C3(C)C)cc2CCF)CCN1CC(=O)Nc1cc(Cl)cc(NC2CCC(=O)NC2=O)c1 (stereo partly drawn) [Example 135, N-(3-chloro-5-(2,6-dioxopiperidin-3-ylamino)phenyl)-2-((R)-4-(2-(4-(3-(4-cyano-3-(trifluoromethyl)phenyl)-5,5-dimethyl-4-oxo-2-thioxoimidazolidin-1-yl)-2-(2-fluoroethyl)phenoxy)ethyl)-2-methylpiperazin-1-yl)acetamide] | * (0<Y<=25%) | < 100 |
| CC1(C)C(=O)N(c2ccc(C#N)c(C(F)(F)F)c2)C(=S)N1c1ccc(OCCN2CCN(CC(=O)Nc3cc(NC4CCC(=O)NC4=O)ccc3F)CC2)c(CC(F)F)c1 (stereo not drawn) [Example 174, 2-(4-(2-(4-(3-(4-cyano-3-(trifluoromethyl)phenyl)-5,5-dimethyl-4-oxo-2-thioxoimidazolidin-1-yl)-2-(2,2-difluoroethyl)phenoxy)ethyl)piperazin-1-yl)-N-(5-(2,6-dioxopiperidin-3-ylamino)-2-fluorophenyl)acetamide] | * (0<Y<=25%) | < 100 |
| CCc1cc(N2C(=S)N(c3ccc(C#N)c(C(F)(F)F)c3)C(=O)C2(C)C)ccc1OCCN1CCN(CC(=O)Nc2cc(F)cc(NC3CCC(=O)NC3=O)c2)CC1 (stereo not drawn) [Example 61, 2-(4-(2-(4-(3-(4-cyano-3-(trifluoromethyl)phenyl)-5,5-dimethyl-4-oxo-2-thioxoimidazolidin-1-yl)-2-ethylphenoxy)ethyl)piperazin-1-yl)-N-(3-(2,6-dioxopiperidin-3-ylamino)-5-fluorophenyl)acetamide] | * (0<Y<=25%) | < 100 |
| CC(C)c1cc(N2C(=S)N(c3ccc(C#N)c(C(F)(F)F)c3)C(=O)C2(C)C)ccc1OCCN1C[C@@H](C)N(CC(=O)Nc2cc(Cl)cc(NC3CCC(=O)NC3=O)c2)C[C@H]1C (stereo partly drawn) [Example 175, N-(3-chloro-5-(2,6-dioxopiperidin-3-ylamino)phenyl)-2-((2R,5R)-4-(2-(4-(3-(4-cyano-3-(trifluoromethyl)phenyl)-5,5-dimethyl-4-oxo-2-thioxoimidazolidin-1-yl)-2-isopropylphenoxy)ethyl)-2,5-dimethylpiperazin-1-yl)acetamide] | * (0<Y<=25%) | 100 to 500 |
| C[C@@H]1CN(CCOc2ccc(N3C(=S)N(c4ccc(C#N)c(C(F)(F)F)c4)C(=O)C3(C)C)cc2CCF)CCN1CC(=O)Nc1cccc(NC2CCC(=O)NC2=O)c1 (stereo partly drawn) [Example 164, 2-((R)-4-(2-(4-(3-(4-cyano-3-(trifluoromethyl)phenyl)-5,5-dimethyl-4-oxo-2-thioxoimidazolidin-1-yl)-2-(2-fluoroethyl)phenoxy)ethyl)-2-methylpiperazin-1-yl)-N-(3-(2,6-dioxopiperidin-3-ylamino)phenyl)acetamide] | * (0<Y<=25%) | < 100 |
| CCc1cc(N2C(=S)N(c3ccc(C#N)c(C(F)(F)F)c3)C(=O)C2(C)C)ccc1OCCN1CCN(CC(=O)Nc2cccc(NC3CCC(=O)NC3=O)c2)C[C@H]1C (stereo partly drawn) [Example 44] | * (0<Y<=25%) | < 100 |
| CCc1c(OCCN2C[C@@H](C)N(CC(=O)Nc3cccc(NC4CCC(=O)NC4=O)c3)[C@@H](C)C2)ccc(N2C(=S)N(c3ccc(C#N)c(C(F)(F)F)c3)C(=O)C2(C)C)c1C (stereo partly drawn) [Example 270, 2-((2R,6S)-4-(2-(4-(3-(4-cyano-3-(trifluoromethyl)phenyl)-5,5-dimethyl-4-oxo-2-thioxoimidazolidin-1-yl)-2-ethyl-3-methylphenoxy)ethyl)-2,6-dimethylpiperazin-1-yl)-N-(3-(2,6-dioxopiperidin-3-ylamino)phenyl)acetamide] | ** (25%<Y<=35%) | 100 to 500 |
| C[C@@H]1CN(CCOc2ccc(N3C(=S)N(c4ccc(C#N)c(C(F)(F)F)c4)C(=O)C3(C)C)cc2CC(F)F)CCN1CC(=O)Nc1cc(NC2CCC(=O)NC2=O)ccc1F (stereo partly drawn) [Example 156, 2-((R)-4-(2-(4-(3-(4-cyano-3-(trifluoromethyl)phenyl)-5,5-dimethyl-4-oxo-2-thioxoimidazolidin-1-yl)-2-(2,2-difluoroethyl)phenoxy)ethyl)-2-methylpiperazin-1-yl)-N-(5-(2,6-dioxopiperidin-3-ylamino)-2-fluorophenyl)acetamide] | * (0<Y<=25%) | < 100 |
| C[C@@H]1CN(CCOc2ccc(N3C(=S)N(c4cnc(C#N)c(C(F)(F)F)c4)C(=O)C34CCC4)cc2C2CC2)C[C@H](C)N1CC(=O)Nc1cc(NC2CCC(=O)NC2=O)ccc1F (stereo partly drawn) [Example 198, 2-((2S,6R)-4-(2-(4-(7-(6-cyano-5-(trifluoromethyl)pyridin-3-yl)-8-oxo-6-thioxo-5,7-diazaspiro[3.4]octan-5-yl)-2-cyclopropylphenoxy)ethyl)-2,6-dimethylpiperazin-1-yl)-N-(5-(2,6-dioxopiperidin-3-ylamino)-2-fluorophenyl)acetamide] | * (0<Y<=25%) | < 100 |
